Results from ChEMBL document CHEMBL4152237, “Identification of novel β-lactams and pyrrolidinone derivatives as selective Histamine-3 receptor (H3R) modulators as possible anti-obesity agents” (Eur J Med Chem, 2018).
The source made the active and inactive calls. The rule behind the calls is not given here.

Tests used:
[1] = target: Histamine H3 receptor (Homo sapiens, UniProt Q9Y5N1); assay: Agonist activity at human H3R expressed in HEK293 cells harboring glosensor-22F cAMP plasmid DNA assessed as inhibition of forskolin-stimulated cAMP accumulation at 10 uM preincubated with cells followed by forskolin addition measured after 10 mins by luminescence assay relative to control; type: functional, cell-based
Chain of Histamine H3 receptor (Q9Y5N1 whole entry): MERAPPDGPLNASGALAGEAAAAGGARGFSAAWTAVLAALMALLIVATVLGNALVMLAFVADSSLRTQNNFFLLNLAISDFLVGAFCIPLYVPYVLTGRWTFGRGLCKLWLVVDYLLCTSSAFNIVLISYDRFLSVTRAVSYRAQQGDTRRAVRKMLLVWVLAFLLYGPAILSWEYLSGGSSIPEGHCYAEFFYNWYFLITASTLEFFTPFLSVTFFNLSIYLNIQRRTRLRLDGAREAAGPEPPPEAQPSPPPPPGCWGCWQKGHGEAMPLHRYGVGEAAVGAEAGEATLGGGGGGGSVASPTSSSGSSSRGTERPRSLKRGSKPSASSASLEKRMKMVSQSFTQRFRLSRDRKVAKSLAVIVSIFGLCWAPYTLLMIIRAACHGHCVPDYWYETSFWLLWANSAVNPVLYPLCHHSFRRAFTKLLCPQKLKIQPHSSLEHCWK

[2] = target: T1, 5-hydroxytryptamine receptor 2C (Homo sapiens) (UniProt P28335); assay: Agonist activity at human 5-HT2C expressed in HEK293 cells harboring luc2P/NFAT-RE plasmid at 10 uM after 6 to 8 hrs by luciferase reporter gene assay; type: functional, cell-based
T1 sequence (whole entry): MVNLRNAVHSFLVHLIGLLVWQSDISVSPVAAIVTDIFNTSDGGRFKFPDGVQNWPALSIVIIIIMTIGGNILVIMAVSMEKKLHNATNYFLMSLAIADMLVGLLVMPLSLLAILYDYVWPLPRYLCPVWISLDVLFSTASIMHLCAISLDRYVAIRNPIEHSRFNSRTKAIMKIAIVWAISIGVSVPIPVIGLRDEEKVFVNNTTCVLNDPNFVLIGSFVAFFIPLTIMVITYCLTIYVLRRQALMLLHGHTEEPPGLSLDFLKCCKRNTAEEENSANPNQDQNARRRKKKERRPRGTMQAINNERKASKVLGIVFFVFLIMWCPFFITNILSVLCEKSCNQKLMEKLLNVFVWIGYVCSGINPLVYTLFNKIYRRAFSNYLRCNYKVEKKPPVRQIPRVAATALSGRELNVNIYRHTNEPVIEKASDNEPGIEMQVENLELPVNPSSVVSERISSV

With `O=C1C=C[C@]23C(c4ccccc4)=CC(=O)N2[C@H](c2ccc(Cl)cc2)C(=O)N[C@@H]3C1` the inhibition [1] was “inactive” and the Activity [2] was “inactive”.

In the case of `COC1=CC2(C=C(OC)C1=O)C(c1ccccc1)=C(c1ccc(OC)cc1)C(=O)N2C(C(=O)NC1CCCCC1)c1cc(OC)c(OC)c(OC)c1` (stereo unspecified), the inhibition [1] is reported as “inactive” and the Activity [2] is reported as “inactive”.

With `N#Cc1ccc([C@@H]2C(=O)N[C@@H]3CC(=O)C=C[C@@]34C(c3ccccc3)=CC(=O)N24)cc1` the Activity [2] was “inactive”.

`COc1cc(C(C(=O)NC2CCCCC2)N2C(=O)C(I)=C(c3ccccc3)C23C=CC(=O)C=C3)cc(OC)c1OC` (stereo unspecified) was tested, and the inhibition [1] was “inactive” and the Activity [2] was “inactive”.

`COc1ccc(C(C(=O)NC2CCCCC2)N2C(=O)C=C(c3ccccc3)C23C=CC(=O)C=C3)cc1C` (stereo unspecified) was tested, and the inhibition [1] was “inactive” and the Activity [2] was “inactive”.

`COC1=CC2(C=C(OC)C1=O)C(c1ccccc1)=C(c1ccc(OC)c(OC)c1OC)C(=O)N2C(C(=O)NC1CCCCC1)c1cc(OC)c(OC)c(OC)c1` (stereo unspecified) was tested, and the inhibition [1] was “inactive” and the Activity [2] was “inactive”.

For `CC(C)(C)NC(=O)C(c1ccccc1Br)N1C(=O)C(I)=C(c2ccccc2)C12C=CC(=O)C=C2` (stereo unspecified), the inhibition [1] was “inactive” and the Activity [2] was “inactive”.

`COc1cc(OC)c(C(C(=O)NC2CCCCC2)N2C(=O)C(c3ccc(CO)cc3)=C(c3ccccc3)C23C=CC(=O)C=C3)cc1OC` (stereo unspecified) was tested, and the inhibition [1] was “inactive” and the Activity [2] was “inactive”.

For `COc1ccc(N2C(=O)/C(=C\c3ccccc3)C2(C(=O)NC2CCCCC2)c2cc(F)cc(F)c2)cc1OC` (stereo unspecified), the inhibition [1] was “inactive” and the Activity [2] was “inactive”.

`COc1ccc(N2C(=O)/C(=C\c3ccccc3)C2(C(=O)NC(C)(C)C)c2ccc(Br)cc2)cc1` (stereo unspecified) was tested, and the inhibition [1] was “inactive” and the Activity [2] was “inactive”.

With `O=C1C=C[C@]23C(c4ccccc4)=CC(=O)N2[C@H](c2cc(F)c(F)c(F)c2)C(=O)N[C@@H]3C1` the inhibition [1] was “inactive” and the Activity [2] was “inactive”.

For `O=C1C=C[C@]23C(c4ccccc4)=CC(=O)N2[C@H](c2ccc(Br)cc2)C(=O)N[C@@H]3C1`, the inhibition [1] was “inactive” and the Activity [2] was “inactive”.

`O=C1C=CC2(C=C1)C(c1ccccc1)=C(I)C(=O)N2C(C(=O)NC1CCCCC1)c1cc2c(cc1Br)OCO2` (stereo unspecified) was tested, and the inhibition [1] was “inactive” and the Activity [2] was “inactive”.

In the case of `O=C1C=C[C@]23C(c4ccccc4)=CC(=O)N2[C@H](c2ccc(F)cc2)C(=O)N[C@@H]3C1`, the inhibition [1] is reported as “inactive” and the Activity [2] is reported as “inactive”.

In the case of `COc1ccc(NC2(c3ccccc3)C(=O)N(C3CCCCC3)C(=O)/C2=C/c2ccccc2)cc1OC` (stereo unspecified), the inhibition [1] is reported as “inactive” and the Activity [2] is reported as “inactive”.

In the case of `Cc1ccc(C(C(=O)NC(C)(C)C)N2C(=O)C(I)=C(c3ccccc3)C23C=CC(=O)C=C3)cc1` (stereo unspecified), the inhibition [1] is reported as “inactive” and the Activity [2] is reported as “inactive”.

For `COC1=CC2(C=C(OC)C1=O)C(c1ccccc1)=C(c1ccc(CO)cc1)C(=O)N2C(C(=O)NC1CCCCC1)c1ccc(OC)c(OC)c1OC` (stereo unspecified), the inhibition [1] was “inactive” and the Activity [2] was “inactive”.

With `CN(C)c1ccc([C@@H]2C(=O)N[C@@H]3CC(=O)C=C[C@@]34C(c3ccccc3)=CC(=O)N24)cc1` the inhibition [1] was “inactive” and the Activity [2] was “inactive”.

For `COc1ccc(NC2(c3ccc(Cl)c(F)c3)C(=O)N(C3CCCCC3)C(=O)/C2=C/c2ccccc2)cc1OC` (stereo unspecified), the inhibition [1] was “inactive” and the Activity [2] was “inactive”.

With `COc1ccc(N2C(=O)/C(=C\c3ccccc3)C2(C(=O)NC(C)(C)C)c2cc(C)cc(C)c2)cc1` (stereo unspecified) the inhibition [1] was “inactive” and the Activity [2] was “inactive”.

`COc1ccc(N2C(=O)C(=Cc3ccccc3)C2(C(=O)NC(C)(C)C)c2ccc(OC)cc2)cc1` (stereo unspecified) was tested, and the inhibition [1] was “inactive” and the Activity [2] was “inactive”.

`O=C1C=C[C@]23C(c4ccccc4)=CC(=O)N2[C@H](c2cccc([N+](=O)[O-])c2)C(=O)N[C@@H]3C1` was tested, and the inhibition [1] was “inactive” and the Activity [2] was “inactive”.

For `CC(C)(C)NC(=O)C(c1ccc(C#N)cc1)N1C(=O)C(I)=C(c2ccccc2)C12C=CC(=O)C=C2` (stereo unspecified), the inhibition [1] was “inactive” and the Activity [2] was “inactive”.

With `Cc1ccccc1C(C(=O)NC(C)(C)C)N1C(=O)C(I)=C(c2ccccc2)C12C=CC(=O)C=C2` (stereo unspecified) the inhibition [1] was “inactive” and the Activity [2] was “inactive”.

With `COc1ccc(C2=C(c3ccccc3)C3(C=CC(=O)C=C3)N(C(C(=O)NC3CCCCC3)c3ccc(OC)c(C)c3)C2=O)cc1` (stereo unspecified) the inhibition [1] was “inactive” and the Activity [2] was “inactive”.

In the case of `COc1cc(N2C(=O)C(=Cc3ccccc3)C2(C(=O)NC(C)(C)C)c2ccc(Br)cc2)cc(OC)c1OC` (stereo unspecified), the inhibition [1] is reported as “inactive” and the Activity [2] is reported as “inactive”.

For `Cc1cc(C(C(=O)NC(C)(C)C)N2C(=O)C(I)=C(c3ccccc3)C23C=CC(=O)C=C3)cc(C)c1O` (stereo unspecified), the inhibition [1] was “inactive” and the Activity [2] was “inactive”.

In the case of `COc1ccc(NC2(c3cc(F)c(F)c(F)c3)C(=O)N(C(C)(C)C)C(=O)/C2=C/c2ccccc2)cc1` (stereo unspecified), the inhibition [1] is reported as “inactive” and the Activity [2] is reported as “inactive”.

`COc1ccc(NC2(c3cccc(Cl)c3)C(=O)N(C(C)(C)C)C(=O)/C2=C/c2ccccc2)cc1` (stereo unspecified) was tested, and the inhibition [1] was “inactive” and the Activity [2] was “inactive”.

With `CC(C)(C)NC(=O)C(c1cccc(Cl)c1)N1C(=O)C(I)=C(c2ccccc2)C12C=CC(=O)C=C2` (stereo unspecified) the inhibition [1] was “inactive” and the Activity [2] was “inactive”.

For `COc1ccc(NC2(c3ccc(F)cc3)C(=O)N(C3CCCCC3)C(=O)/C2=C/c2ccccc2)cc1OC` (stereo unspecified), the inhibition [1] was “inactive” and the Activity [2] was “inactive”.

In the case of `COc1ccc(N2C(=O)/C(=C\c3ccccc3)C2(C(=O)NC(C)(C)C)c2cccc(Cl)c2)cc1` (stereo unspecified), the inhibition [1] is reported as “inactive” and the Activity [2] is reported as “inactive”.

For `O=C1C=CC2(C=C1)C(c1ccccc1)=C(I)C(=O)N2C(C(=O)NC1CCCCC1)c1cccc([N+](=O)[O-])c1` (stereo unspecified), the inhibition [1] was “inactive” and the Activity [2] was “inactive”.

In the case of `COc1cc(N2C(=O)C(=Cc3ccccc3)C2(C(=O)NC(C)(C)C)c2cc(C)cc(C)c2)cc(OC)c1OC` (stereo unspecified), the inhibition [1] is reported as “inactive” and the Activity [2] is reported as “inactive”.

In the case of `COc1ccc(C2=C(c3ccccc3)C3(C=CC(=O)C=C3)N(C(C(=O)NC(C)(C)C)c3ccccc3C)C2=O)cc1` (stereo unspecified), the inhibition [1] is reported as “inactive” and the Activity [2] is reported as “inactive”.

`COc1cc(NC2(c3ccc(Cl)c(F)c3)C(=O)N(C(C)(C)C)C(=O)/C2=C/c2ccccc2)cc(OC)c1OC` (stereo unspecified) was tested, and the inhibition [1] was “inactive” and the Activity [2] was “inactive”.

For `COc1cc(OC)c(C(C(=O)NC2CCCCC2)N2C(=O)C(I)=C(c3ccccc3)C23C=CC(=O)C=C3)cc1OC` (stereo unspecified), the inhibition [1] was “inactive” and the Activity [2] was “inactive”.

In the case of `O=C1C=C[C@]23C(c4ccccc4)=CC(=O)N2[C@H](c2ccc(Cl)c(F)c2)C(=O)N[C@@H]3C1`, the inhibition [1] is reported as “inactive” and the Activity [2] is reported as “inactive”.

For `COc1ccc(N2C(=O)/C(=C\c3ccccc3)C2(C(=O)NC(C)(C)C)c2ccc(C(F)(F)F)cc2)cc1` (stereo unspecified), the inhibition [1] was “inactive” and the Activity [2] was “inactive”.

With `COc1ccc(NC2(c3ccc(Cl)c(F)c3)C(=O)N(C(C)(C)C)C(=O)/C2=C/c2ccccc2)cc1` (stereo unspecified) the inhibition [1] was “inactive” and the Activity [2] was “inactive”.

With `O=C1C=C[C@]23C(c4ccccc4)=CC(=O)N2[C@H](c2cccc(Cl)c2)C(=O)N[C@@H]3C1` the inhibition [1] was “inactive” and the Activity [2] was “inactive”.

In the case of `O=C1C=C[C@]23C(c4ccccc4)=CC(=O)N2[C@H](c2ccc(OC(F)(F)F)cc2)C(=O)N[C@@H]3C1`, the inhibition [1] is reported as “inactive” and the Activity [2] is reported as “inactive”.

`COc1ccc(NC2(c3cc(C)cc(C)c3)C(=O)N(C(C)(C)C)C(=O)/C2=C/c2ccccc2)cc1` (stereo unspecified) was tested, and the inhibition [1] was “inactive” and the Activity [2] was “inactive”.

With `COc1cc(NC2(c3cc(F)cc(F)c3)C(=O)N(C3CCCCC3)C(=O)/C2=C/c2ccccc2)cc(OC)c1OC` (stereo unspecified) the inhibition [1] was “inactive” and the Activity [2] was “inactive”.

With `O=C1C=C[C@]23C(c4ccccc4)=CC(=O)N2[C@H](c2cccc(Br)c2)C(=O)N[C@@H]3C1` the inhibition [1] was “inactive” and the Activity [2] was “inactive”.

With `O=C1C=C[C@]23C(c4ccccc4)=CC(=O)N2[C@H](c2cccc(OC(F)(F)F)c2)C(=O)N[C@@H]3C1` the inhibition [1] was “inactive” and the Activity [2] was “inactive”.

For `COc1ccc(C2(Nc3cc(OC)c(OC)c(OC)c3)C(=O)N(C3CCCCC3)C(=O)/C2=C/c2ccccc2)cc1` (stereo unspecified), the inhibition [1] was “inactive” and the Activity [2] was “inactive”.

With `CC(C)(C)NC(=O)C(c1cc2c(cc1Br)OCO2)N1C(=O)C(I)=C(c2ccccc2)C12C=CC(=O)C=C2` (stereo unspecified) the inhibition [1] was “inactive” and the Activity [2] was “inactive”.

`COc1ccc(C(C(=O)NC2CCCCC2)N2C(=O)C(I)=C(c3ccccc3)C23C=CC(=O)C=C3)cc1C` (stereo unspecified) was tested, and the inhibition [1] was “inactive” and the Activity [2] was “inactive”.

With `O=C1C=CC2(C=C1)C(c1ccccc1)=C(I)C(=O)N2C(C(=O)NC1CCCCC1)c1ccccc1[N+](=O)[O-]` (stereo unspecified) the inhibition [1] was “inactive” and the Activity [2] was “inactive”.

In the case of `O=C1C=CC2(C=C1)C(c1ccccc1)=C(I)C(=O)N2C(C(=O)NC1CCCCC1)c1ccc(Cl)cc1` (stereo unspecified), the inhibition [1] is reported as “inactive” and the Activity [2] is reported as “inactive”.

In the case of `O=C1C=CC2(C=C1)C(c1ccccc1)=C(I)C(=O)N2C(C(=O)NC1CCCCC1)c1ccccc1Br` (stereo unspecified), the inhibition [1] is reported as “inactive” and the Activity [2] is reported as “inactive”.

For `COc1ccc([C@@H]2C(=O)N[C@@H]3CC(=O)C=C[C@@]34C(c3ccccc3)=CC(=O)N24)cc1`, the inhibition [1] was “inactive” and the Activity [2] was “inactive”.

In the case of `COc1ccc(N2C(=O)/C(=C\c3ccccc3)C2(C(=O)NC(C)(C)C)c2cc(F)cc(F)c2)cc1` (stereo unspecified), the Activity [2] is reported as “inactive”.
